Experimental data taken from patent US20210278408A1, “METHODS OF TREATMENT OF CANCER WITH SUBSTITUTED PYRROLE AND PYRAZOLE COMPOUNDS AND DIAGNOSIS OF CANCERS SUSCEPTIBLE TO TREATMENT WITH SUBSTITUTED PYRROLE AND PYRAZOLE COMPOUNDS” (Bantam Pharmaceutical, LLC, priority 2018, published 2021).
Read-outs that look alike come from different tables or passages of the source.

System: 407 cancer cell lines
Test: Cell viability of cancer cell lines (IC50), CellTiter-Glo Viability Assay, 96 h
Format: cell-based
Conditions: Homo sapiens, read-out: Absolute IC50
Procedure: Viability was determined by using the 50% inhibitory concentration (IC50) as determined with the CellTiter-Glo® Viability Assay (Promega).
Experiments were initiated by first thawing and equilibrating the CellTiter-Glo® Buffer to room temperature. The lyophilized CellTiter-Glo® Substrate was also equilibrated to room temperature. The lyophilized substrate was reconstituted with the CellTiter-Glo® buffer to form the CellTiter-Glo® Reagent.
Cells were harvested during the logarithmic growth period, counted, and the cell concentration adjusted to 4.44×10^4 cells/mL using culture medium.
Cells were allowed to grow overnight and the following day, the TO reading was obtained by adding 10 μL culture medium to each well of Plate A. The plate was allowed to equilibrate at room temperature for thirty minutes, after which 50 μL CellTiter-Glo® reagent was added to each well. The contents were mixed for 5 min on an orbital shaker to induce cell lysis. Plates were incubated for 20 minutes to stabilize the luminescent signal and the TO luminescence recorded.
Test plate B was incubated for 96 h in the humidified incubator at 37° C. with 5% CO2.
Following the incubation, the plate was equilibrated at room temperature for thirty minutes. CellTiter-Glo® (50 μL) was added to each well of the plate and contents mixed for five minutes on an orbital shaker to induce cell lysis. The luminescent signal was allowed to stabilize at room temperature for 20 minutes and the luminescence recorded.
IC50 (EC50) was calculated using a dose-response curve, fitted using a nonlinear regression model with a sigmoidal dose response. Survival rate was calculated using the formula:
The Surviving rate (%)=(LumTest article−LumMedium control)/(LumNon-treated−LumMedium control)×100%.
Absolute IC50 (EC50) was calculated according to the dose-response curve generated by the statistical software (GraphPad Prism 5.0).

Work on `Cc1nn(-c2nc(-c3ccc(C(F)(F)F)cc3)c(SC(C)C)s2)c(C(=O)O)c1-c1cccc(F)c1` [Compound A197, 4-(3-fluorophenyl)-1-(5-(isopropylthio)-4-(4-(trifluoromethyl)phenyl)thiazol-2-yl)-3-methyl-1H-pyrazole-5-carboxylic acid] yielded an IC50 (DMS-79, DMS 79) of over 30000 nM, an IC50 (DMS-114, 96 h, DMS 114 cells, 96 h) of over 30000 nM and an IC50 (DOHH-2, 96 h, DOHH-2 cells, 96 h) of 310 nM. For the same molecule, the IC50 (DU-145, 96 h, DU 145, 96 h) was 850 nM, the IC50 (DU-4475, DU4475) was 320 nM and the IC50 (DV-90, 96 h, DV-90 cells, 96 h) was over 30000 nM. It also gave an IC50 (Daoy, 96 h, Daoy cells, 96 h) of over 30000 nM, an IC50 (Daudi, 96 h, Daudi cells, 96 h) of 810 nM and an IC50 (Detroit 562, 96 h, Detroit 562 cells, 96 h) of over 30000 nM. It also gave an IC50 (DoTc2-4510, 96 h, DoTc2 4510 cells, 96 h) of over 30000 nM, an IC50 (EBC-1, 96 h) of over 30000 nM and an IC50 (EJM, 96 h, EJM cells, 96 h) of 3000 nM. For the same molecule, the IC50 (EOL1, EOL-1) was 740 nM, the IC50 (ES-2, 96 h, ES-2 cells, 96 h) was over 30000 nM and the IC50 (FTC-133, FTC-133) was 840 nM. The IC50 (FaDu, 96 h, FaDu, 96 h) was 380 nM, the IC50 (G292, 96 h, G-292 clone A141B1 cells, 96 h) was 1860 nM and the IC50 (GTL 16, 96 h, GTL-16 cells, 96 h) was over 30000 nM. For the same molecule, the IC50 (Granta-519, GRANTA-519) was 1000 nM, the IC50 (HCC38, HCC38) was over 30000 nM and the IC50 (HCC78, 96 h, HCC-78 cells, 96 h) was 410 nM. For the same molecule, the IC50 (HCC827, 96 h, HCC827 cells, 96 h) was over 30000 nM, the IC50 (HCC1187, 96 h, HCC1187 cells, 96 h) was over 30000 nM and the IC50 (HCC1428, HCC1428) was over 30000 nM. For the same molecule, the IC50 (HCC1569, HCC1569) was over 30000 nM, the IC50 (HCC1806, 96 h, HCC1806 cells, 96 h) was over 30000 nM and the IC50 (HCC1937, HCC1937) was over 30000 nM. For the same molecule, the IC50 (HCC1954, HCC1954) was over 30000 nM, the IC50 (HCC2218, 96 h) was over 30000 nM and the IC50 (HCC2935, HCC2935) was over 30000 nM. The IC50 (HCC4006, 96 h) was 460 nM, the IC50 (HCCLM3, 96 h, HCCLM3 cells, 96 h) was over 30000 nM and the IC50 (HCT-8, HCT-8) was 770 nM. For the same molecule, the IC50 (HCT-15, HCT-15) was 300 nM, the IC50 (HCT-116, HCT-116) was 920 nM and the IC50 (HEC-1-A, 96 h, HEC-1-A cells, 96 h) was over 30000 nM. The IC50 (HEC-1B, 96 h, HEC-1-B cells, 96 h) was 550 nM, the IC50 (HEL 92.1.7, HEL 92.1.7) was 380 nM and the IC50 (HGC-27, 96 h, HGC-27 cells, 96 h) was 510 nM. The IC50 (HL-60, HL-60) was 990 nM, the IC50 (HLE, 96 h, HLE cells, 96 h) was over 30000 nM and the IC50 (HOS, 96 h, HOS cells, 96 h) was over 30000 nM. For the same molecule, the IC50 (HPAC) was 460 nM, the IC50 (HT55, HT-55) was over 30000 nM and the IC50 (HT-3, 96 h, HT-3 cells, 96 h) was over 30000 nM. The IC50 (HT-29, HT-29) was 1270 nM, the IC50 (HT-1080, 96 h) was 1040 nM and the IC50 (HT-1376, HT-1376) was over 30000 nM. The IC50 (HeLa 229, 96 h, HeLa 229 cells, 96 h) was over 30000 nM, the IC50 (HeLa, 96 h, HeLa cells, 96 h) was 1740 nM and the IC50 (Hep3B) was over 30000 nM. It also gave an IC50 (HepG2, Hep G2) of over 30000 nM, an IC50 (HuCCT-1, 96 h, HuCCT1, 96 h) of over 30000 nM and an IC50 (HuH-1, HUH-1) of over 30000 nM. It also gave an IC50 (HuT78, HuT 78) of 630 nM, an IC50 (HuTu80, Hutu 80) of 860 nM and an IC50 (Huh-7, 96 h, HUH-7 cells, 96 h) of 1050 nM. The IC50 (IMR-32, 96 h, IMR-32 cells, 96 h) was 800 nM, the IC50 (Ishikawa, 96 h, Ishikawa, 96 h) was 290 nM and the IC50 (J82, 96 h, J82 cells, 96 h) was 1110 nM. For the same molecule, the IC50 (JEG-3, 96 h, JEG-3 cells, 96 h) was 1080 nM, the IC50 (JIMT-1, 96 h, JIMT-1 cells, 96 h) was over 30000 nM and the IC50 (JJN-3, 96 h, JJN-3 cells, 96 h) was 1340 nM. The IC50 (JVM-2, JVM-2) was 730 nM, the IC50 (JVM-3, JVM-3) was 270 nM and the IC50 (JeKo-1, 96 h, JeKo-1 cells, 96 h) was 790 nM. For the same molecule, the IC50 (Jurkat, Jurkat clone E6-1) was 640 nM, the IC50 (K562, K-562) was 570 nM and the IC50 (KARPAS-299, 96 h, KARPAS-299 cells, 96 h) was over 30000 nM. The IC50 (KARPAS-422, KARPAS-422) was 780 nM, the IC50 (KATO III, 96 h, KATO III, 96 h) was over 30000 nM and the IC50 (KG-1, KG-1) was 1050 nM. It also gave an IC50 (KHOS/NP, 96 h, KHOS/NP cells, 96 h) of over 30000 nM, an IC50 (KM-H2, 96 h, KMH-2 cells, 96 h) of 1440 nM and an IC50 (KMS-11, KMS-11) of 630 nM. For the same molecule, the IC50 (KP-4, 96 h, KP4 cells, 96 h) was 530 nM, the IC50 (KYSE-70, KYSE-70) was 460 nM and the IC50 (KYSE-150, KYSE-150) was 750 nM. The IC50 (KYSE-270, KYSE-270) was 4780 nM, the IC50 (KYSE-410, 96 h, KYSE-410 cells, 96 h) was over 301000 nM and the IC50 (Kasumi 1, Kasumi-1) was 1090 nM. The IC50 (L-363, L-363) was 880 nM, the IC50 (LN-18, 96 h, LN-18 cells, 96 h) was 520 nM and the IC50 (LN-229, 96 h, LN-229 cells, 96 h) was over 30000 nM. The IC50 (LNCaP-Clone-FGC, 96 h, LNCaP clone FGC, 96 h) was 180 nM, the IC50 (LP-1, LP-1) was 490 nM and the IC50 (LS180, LS 180) was over 30000 nM. For the same molecule, the IC50 (LS-123, 96 h, LS123 cells, 96 h) was over 30000 nM, the IC50 (LS-411N, LS411N) was 700 nM and the IC50 (LS-513, 96 h, LS513 cells, 96 h) was 700 nM. The IC50 (LS-1034, 96 h, LS1034 cells, 96 h) was over 30000 nM, the IC50 (LoVo) was over 30000 nM and the IC50 (MCF7, MCF7) was over 30000 nM. The IC50 (MDA-MB-231, MDA-MB-231) was over 30000 nM, the IC50 (MDA-MB-415, MDA-MB-415) was over 30000 nM and the IC50 (MDA-MB-436, 96 h) was over 30000 nM. It also gave an IC50 (MDA-MB-453, MDA-MB-453) of over 30000 nM, an IC50 (MDA-MB-468, 96 h, MDA-MB-468 cells, 96 h) of 520 nM and an IC50 (ME-180, 96 h, ME-180 cells, 96 h) of 550 nM. For the same molecule, the IC50 (MEG-01, MEG-01) was 1560 nM, the IC50 (MES-SA, 96 h, MES-SA cells, 96 h) was 490 nM and the IC50 (MES-SA/Dx5, 96 h, MES-SA/DX5 cells, 96 h) was 340 nM. For the same molecule, the IC50 (MFE-296, 96 h, MFE-296 cells, 96 h) was over 30000 nM, the IC50 (MHCC97H, MHCC97-H) was 3250 nM and the IC50 (MIA PaCa-2, MIA PaCa-2) was 2890 nM. It also gave an IC50 (MKN-1, 96 h, MKN1 cells, 96 h) of 2930 nM, an IC50 (MKN-45, 96 h, MKN45, 96 h) of over 30000 nM and an IC50 (MKN-74, 96 h, MKN74 cells, 96 h) of over 30000 nM. For the same molecule, the IC50 (ML-2, ML-2) was 460 nM, the IC50 (MM1.S, MM.1S) was over 30000 nM and the IC50 (MOLM-13, 96 h, MOLM-13 cells, 96 h) was 870 nM. It also gave an IC50 (MOLP-8, 96 h, MOLP8 cells, 96 h) of 990 nM, an IC50 (MOLT-4, Molt-4) of 620 nM and an IC50 (MSTO-211H, 211 h, MsTo 211H) of 550 nM. For the same molecule, the IC50 (MV4-11, 96 h, MV-4-11 cells, 96 h) was 320 nM, the IC50 (MX1, MX-1) was over 30000 nM and the IC50 (NALM-6, NALM-6) was 700 nM. The IC50 (NB-4, 96 h, NB4 cells, 96 h) was 110 nM, the IC50 (NCI-H23, 96 h, NCI-H23 cells, 96 h) was 760 nM and the IC50 (NCI-H69, 96 h, NCI-H69 cells, 96 h) was over 30000 nM. The IC50 (NCI-H82, 96 h) was 760 nM, the IC50 (NCI-H146, 96 h, NCI-H146 cells, 96 h) was over 30000 nM and the IC50 (NCI-H187, NCI-H187) was 330 nM. The IC50 (NCI-H209, 96 h, NCI-H209 cells, 96 h) was over 30000 nM and the IC50 (NCI-H226, NCI-H226) was 2080 nM.
